Measurements as given in patent publication US20230092389A1, “UNIT DOSES, AEROSOLS, KITS, AND METHODS FOR TREATING HEART CONDITIONS BY PULMONARY ADMINISTRATION” (InCarda Therapeutics, Inc., priority 2017, published 2023).
Values joined by “and” are separate entries in the source; they are usually repeats but may differ in a detail not shown here. Equal values may be shown once. Read-outs that look alike come from different tables or passages of the source.

Assays:
[1] = test system: dogs with induced atrial fibrillation; assay type: in vivo, dog
Procedure: Atrial Fibrillation Model: A venous catheter was placed in a peripheral vessel (i.e., cephalic) for administration of anesthetic. […] Following induction, animals were endotracheally intubated and mechanically ventilated (˜12 breaths/minute with a tidal volume of 200-300 mL). Subsequently, a cut-down on a jugular vein permitted introduction of a pacing lead into the right atrium. Transthoracic electrodes forming ECG lead II were placed. For test/vehicle article delivery, a 4F catheter was introduced through the trachea and wedged into a small airway, and a venous catheter was placed in a peripheral vessel (i.e., cephalic). […] Approximately 5 min after administration of this parasympathomimetic was started; the following experiments were performed: […] Observations were made for up to 10 minutes. […] Vehicle was only water.

healthy volunteers = assay: Phase 1 (FLE-001) pulmonary safety: spirometry, SpO2, auscultation, chest x-ray; assay type: in vivo, human
Procedure: Pulmonary safety was assessed by performing lung spirometry tests and measuring peripheral oxygen saturation (SpO2%) prior to dosing and at various times after completion of the inhalation. Lung spirometry tests evaluated all lung function parameters, including forced vital capacity (FVC), forced expiratory volume in 1 second (FEV1), peak expiratory flow (PEF), and forced expiratory flow at 25% and 75% intervals (FEF25-75). Auscultation and respiration rate were also measured prior to dosing and at various times after inhalation. Chest x-rays were performed on subjects before and after flecainide inhalation.

[2] = test system: anesthetized Yorkshire pigs; assay: PD (hemodynamics, ECG intervals) after IV or IT in anesthetized pigs (Example 5); assay type: in vivo
Procedure: All catheters were positioned under fluoroscopic guidance. […] Data are reported as means±SEM. Statistical analyses were performed using the SAS system (9.4) to apply ANOVA with a post-hoc Dunnett's test. Statistical significance was assumed at p<0.05.

[3] = test system: beagle dogs with induced AF; assay: Cardioversion of induced AF by IT or IV flecainide, anesthetized dogs (Example 7); assay type: in vivo; details: for Time to NSR, individual animals: cumulative dose 0.75-1.0 mg/kg, animals 001-006
Procedure: The study was carried out in anesthetized healthy adult beagle dogs with induced AF. Acute AF was induced using the combination of phenylephrine ([…]), to increase heterogeneity of atrial refractory periods via increased loading and through a baroreceptor-mediated increase in parasympathetic efferent activity, and right atrial burst pacing (40-50 Hz for ˜15 min). The AF induced using this method was, in general, stable for more than 30 mins.
The cardiac rhythm was monitored prior to, during AF, and up to 10 min post-dosing and/or until conversion to NSR.

[4] = male, Yorkshire, pig, in vivo, iv, 2 mg/kg
Procedure: The studies were carried out in male Yorkshire pigs (n=9) weighing 36±1.0 kg (mean±SEM). The pigs were pre-anesthetized with telazol (4.7 mg/kg, intramuscular) and subsequently further anesthetized using alpha-chloralose (80 mg/kg, IV bolus, followed by 24 mg/kg/h continuous IV infusion). The animals were intubated and ventilated at a constant rate of 12 breaths/min and tidal volume of 400 ml per stroke.
Simultaneous blood samples were drawn from the pigtail catheter positioned in the LV and from a catheter in the jugular vein.
The samples were centrifuged and frozen at −80° C. until drug level determination was performed using a bioanalytical assay method developed by Climax Laboratories, Inc.

[5] = beagle, dog, in vivo
Excerpt: After induction of AF, animals were first given vehicle (0.9% NaCl, volume-matched) via IT installation.

[6] = cited from earlier work
[7] = Cohort 1, 20 mg eTLD, 3 hours Post-dose
[8] = Cohort 1, 20 mg eTLD, 12 hours Pre-dose
[9] = Cohort 1, 20 mg eTLD, 24 hours Post-dose
[10] = Cohort 2, 40 mg eTLD, 3 hours Post-dose
[11] = Cohort 2, 40 mg eTLD, 12 hours Pre-dose
[12] = Cohort 2, 40 mg eTLD, 24 hours Post-dose
[13] = IV 2 mg/Kg, n = 3, Mean ± SEM, package insert

time of peak LV and venous plasma levels [4]: 2 min
Plasma Concentration LV at time of conversion, Mean ± SEM [5]: 1139 ± 380 ng/mL
Plasma Concentration Venous at time of conversion, Mean ± SEM [5]: 611 ± 213 ng/mL
plasma concentrations transiently higher in LV than in PA (summary) [5]: ~2.5 fold
plasma levels higher in LV than in systemic venous circulation [5]: ~2 fold
plasma concentrations transiently higher in PA than in LV (summary) ([5]; iv): ~3.5 fold
time after administration when LV and PA concentrations were nearly equal ([5]; iv): 4 to 10 min
SMILES: O=C(NCC1CCCCN1)c1cc(OCC(F)(F)F)ccc1OCC(F)(F)F (stereo not shown) [flecainide]
ECG trace: Afib conversion ([1]; 2 mg/kg (FIG. 12)): Afib converting as soon as dosing occurred
ECG trace: Afib conversion ([1]; 4 mg/kg by intra-tracheal instillation (FIG. 11)): Afib converting into normal sinus rhythm
ventricular rate ([1]; large pulmonary doses): slower ventricular rates
effect on induced atrial fibrillation ([1]; pulmonary (IT) administration): rapidly converted the Atrial Fibrillation to normal sinus rhythm
conversion of induced atrial fibrillation to normal sinus rhythm ([1]; pulmonary dose 2-4 mg/kg body weight): converted the induced atrial fibrillation to normal sinus rhythm
cardiovascular effect when given by intratracheal instillation ([1]; summary of Example 2): clear cardiovascular effect
Oxygen Saturation (SpO2%), mean (healthy volunteers; Cohort 1, 20 mg eTLD, 15 min Postdose): 97%
Oxygen Saturation (SpO2%), mean (healthy volunteers; Cohort 1, 20 mg eTLD, 30 min Postdose): 97%
Oxygen Saturation (SpO2%), mean (healthy volunteers; Cohort 1, 20 mg eTLD, 45 min Postdose): 97%
Oxygen Saturation (SpO2%), mean (healthy volunteers; Cohort 1, 20 mg eTLD, 60 min Postdose): 97%
Oxygen Saturation (SpO2%), mean (healthy volunteers; Cohort 1, 20 mg eTLD, 75 min Postdose): 98%
Oxygen Saturation (SpO2%), mean (healthy volunteers; Cohort 1, 20 mg eTLD, 90 min Postdose): 98%
Oxygen Saturation (SpO2%), mean (healthy volunteers; Cohort 1, 20 mg eTLD, 105 min Postdose): 97%
Oxygen Saturation (SpO2%), mean (healthy volunteers; Cohort 1, 20 mg eTLD, 120 min Postdose): 98%
FEF25-75, mean (healthy volunteers; [7]): 5.48 L/s
FEV1, mean (healthy volunteers; [7]): 5.27 L
FVC, mean (healthy volunteers; [7]): 6.42 L
PEF, mean (healthy volunteers; [7]): 10.87 L/s
FEF25-75, mean (healthy volunteers; [8]): 5.38 L/s
FEV1, mean (healthy volunteers; [8]): 5.26 L
FVC, mean (healthy volunteers; [8]): 6.02 L
PEF, mean (healthy volunteers; [8]): 11.30 L/s
FEF25-75, mean (healthy volunteers; [9]): 5.40 L/s
FEV1, mean (healthy volunteers; [9]): 5.18 L
FVC, mean (healthy volunteers; [9]): 6.36 L
PEF, mean (healthy volunteers; [9]): 11.09 L/s
Oxygen Saturation (SpO2%), mean (healthy volunteers; Cohort 1, 20 mg eTLD, Predose): 98%
Oxygen Saturation (SpO2%), mean (healthy volunteers; Cohort 2, 40 mg eTLD, 15 min Postdose): 96%
Oxygen Saturation (SpO2%), mean (healthy volunteers; Cohort 2, 40 mg eTLD, 30 min Postdose): 97%
Oxygen Saturation (SpO2%), mean (healthy volunteers; Cohort 2, 40 mg eTLD, 45 min Postdose): 96%
Oxygen Saturation (SpO2%), mean (healthy volunteers; Cohort 2, 40 mg eTLD, 60 min Postdose): 96%
Oxygen Saturation (SpO2%), mean (healthy volunteers; Cohort 2, 40 mg eTLD, 75 min Postdose): 97%
Oxygen Saturation (SpO2%), mean (healthy volunteers; Cohort 2, 40 mg eTLD, 90 min Postdose): 97%
Oxygen Saturation (SpO2%), mean (healthy volunteers; Cohort 2, 40 mg eTLD, 105 min Postdose): 97%
Oxygen Saturation (SpO2%), mean (healthy volunteers; Cohort 2, 40 mg eTLD, 120 min Postdose): 97%
FEF25-75, mean (healthy volunteers; [10]): 4.34 L/s
FEV1, mean (healthy volunteers; [10]): 4.96 L
FVC, mean (healthy volunteers; [10]): 6.19 L
PEF, mean (healthy volunteers; [10]): 10.66 L/s
FEF25-75, mean (healthy volunteers; [11]): 5.00 L/s
FEV1, mean (healthy volunteers; [11]): 5.04 L
FVC, mean (healthy volunteers; [11]): 6.18 L
PEF, mean (healthy volunteers; [11]): 10.83 L/s
FEF25-75, mean (healthy volunteers; [12]): 4.80 L/s
FEV1, mean (healthy volunteers; [12]): 5.08 L
FVC, mean (healthy volunteers; [12]): 6.39 L
PEF, mean (healthy volunteers; [12]): 11.14 L/s
Oxygen Saturation (SpO2%), mean (healthy volunteers; Cohort 2, 40 mg eTLD, Predose): 97%
respiratory rate (healthy volunteers; Cohorts 1, 2, 3, 5): minimal or no changes
standard lung spirometry measurements and peripheral O2 saturation (healthy volunteers; Cohorts 1, 2, 3, 5): normal before and after
SpO2 pre-dose and post-dose values (healthy volunteers; Cohorts 1 and 2): 97-98%
lung function parameters (FVC, FEV1, PEF, FEF25-75) pre-dose and post-dose (healthy volunteers; Cohorts 1 and 2): within the normal range for the population studied
Auscultation (healthy volunteers; inhaled 20, 30, 40 mg eTLD): normal
Chest x-rays (healthy volunteers; inhaled 20, 30, 40 mg eTLD): normal and showed no changes
respiration rate (healthy volunteers; inhaled 20, 30, 40 mg eTLD): No changes
QRS duration ([2]; IT 0.75 mg/kg, 2 min, baseline 58±1.8 ms): 64 ± 1.6 ms
QRS duration ([2]; IT 0.75 mg/kg, 5 min, baseline 58±1.8 ms): 65 ± 1.7 ms
QRS duration ([2]; IT 0.75 mg/kg, 30 min): 58 ± 0.9 ms
mean arterial pressure ([2]; IT 0.75 mg/kg, baseline 111±3.6 mmHg, p=0.9112): not significantly altered across 30 min
heart rate ([2]; IT 0.75 mg/kg, baseline 111±6.4 bpm, p=0.9970): not significantly altered across 30 min
PR interval ([2]; IT 0.75 mg/kg, baseline 130±5.3 ms, p=0.9351): not significantly changed across 30 min
JTc interval ([2]; IT 0.75 mg/kg, baseline 354±12.0 ms, p=0.7605): not significantly changed across 30 min
QTc interval ([2]; IT 0.75 mg/kg, baseline 435±12.9 ms, p=0.5505): not significantly changed across 30 min
QRS duration ([2]; IT 1.5 mg/kg, 2 min, baseline 57±0.4 ms): 68 ± 1.9 ms
QRS duration ([2]; IT 1.5 mg/kg, 5 min): 69 ± 2.2 ms
QRS duration ([2]; IT 1.5 mg/kg, 10 min): 67 ± 1.7 ms
QRS duration ([2]; IT 1.5 mg/kg, 15 min): 64 ± 1.3 ms
QRS duration ([2]; IT 1.5 mg/kg, 30 min): 60 ± 0.9 ms
mean arterial pressure ([2]; IT 1.5 mg/kg, baseline 108±9.4 mmHg, p=0.9894): not significantly altered across 30 min
heart rate ([2]; IT 1.5 mg/kg, baseline 118±13.2 bpm, p=0.9999): not significantly altered across 30 min
PR interval ([2]; IT 1.5 mg/kg, baseline 127±2.3 ms, p=0.0819): not significantly changed across 30 min
JTc interval ([2]; IT 1.5 mg/kg, baseline 364±11.5 ms, p=0.9968): not significantly changed across 30 min
QTc interval ([2]; IT 1.5 mg/kg, baseline 436±7.1 ms, p=0.1510): not significantly changed across 30 min
heart rate ([2]; IV 2 mg/kg over 2 min, baseline 103±1.9 bpm, p=0.9936): not significantly altered across 30 min
QRS duration ([2]; IV 2 mg/kg, 2 min, baseline 58±1.9 ms): 77 ± 6.2 ms
QRS duration ([2]; IV 2 mg/kg, 5 min, baseline 58±1.9 ms): 76 ± 4.8 ms
QRS duration ([2]; IV 2 mg/kg, 30 min): 59 ± 3.0 ms
mean arterial pressure ([2]; IV 2 mg/kg, baseline 105±6.7 mmHg, p=0.8852): not significantly altered across 30 min
PR interval ([2]; IV 2 mg/kg, baseline 127±7.8 ms, p=0.5161): not significantly changed across 30 min
JTc interval ([2]; IV 2 mg/kg, baseline 367±7.4 ms, p=0.9686): not significantly changed across 30 min
QTc interval ([2]; IV 2 mg/kg, baseline 442±7.9 ms, p=0.35): not significantly changed across 30 min
effects in BP, VR and LV dP/dtmax upon conversion, IV vs IT ([3]; FIG. 69): Flecainide given IV caused greater effects
dogs converted from AF to NSR ([3]; IT): 6/6
representative ECG: conversion of AF to NSR ([3]; IT 0.75 mg/kg (FIGS. 68A-D)): conversion of AF to NSR
Time to NSR, individual animals ([3]; IT, cumulative IT dose 0.75 mg/kg): 12 s and 23 s and 62 s
Time to NSR, individual animals ([3]; IT, cumulative IT dose 0.75 (0.25 + 0.5) mg/kg): 147 s and 52 s
Time to NSR, individual animals ([3]; IT, cumulative IT dose 1.0 (0.75 + 0.25) mg/kg): 83 s
Time to NSR, Mean ± SEM ([3]; IT, mean dose 0.79 ± 0.04 mg/kg, 6 dogs, 0.04 mg/kg): 63 ± 18 s
dogs converted from AF to NSR ([3]; IV bolus): 2/2
time to conversion of AF to NSR ([3]; IV bolus): 29 s
sufficiency of LV (left atrium) levels to terminate AF ([3]; pulmonary delivery): sufficient to rapidly terminate AF
AUClast [6, 13]: 4211 ± 456 ng·h/mL
Cmax [6, 13]: 1644 ± 534 ng/mL
Tmax ([6]; IV 2 mg/Kg, n = 3, package insert): 10.0 min
Dist. t1/2 ([6]; in vivo, iv, 2 mg/kg): 2.6 ± 0.7 min
Elim. t1/2 ([6]; in vivo, iv, 2 mg/kg): 558 ± 6 min
